“Also recorded” adds a separate entry of the source.

The values that follow come from patent publication US20160077084A1, “AMPHIBIAN OOCYTE OR EMBRYO BIOASSAY” (THE BOARD OF TRUSTEES OF THE UNIVERSITY OF ARKANSAS, priority 2013, published 2016).

The subject of data set [1] is Xenopus oocytes. Put plainly: Xenopus oocyte bioassay: oocyte maturation (GVBD) in the absence of progesterone. The format is cell-based. The conditions noted are these: screen at 100 μM. How it is done: (§1) Oocyte maturation was monitored at regular intervals using a high content image capture procedure. Immature stage VI Xenopus oocytes were transferred to wells of a flat bottom 96-well plate containing about 178 μL of L15 culture media. The oocytes were transferred using wide mouth 200 μL pipette tips with minimal transfer of culture medium (e.g., about 20 μL). Generally, the oocytes oriented with the dark-pigmented animal hemisphere facing up due to the higher density of the yolk-containing vegetal hemisphere. Incorrectly orientated oocytes were gently manipulated using a drawn-out capillary tube or other tool to rotate them into the correct orientation. […] The oocytes were incubated for about 16 hours (i.e., overnight) at 16-25° C. in the presence of 1% DMSO (i.e., 2 μL of 100% DMSO).
Oocyte maturation was stimulated by the addition of progesterone. For this, 2 μL of 1000× stock solution (2 mg/mL in ethanol) was added to the appropriate wells to yield a final concentration of 2 μg/mL (although other concentrations of progesterone may be employed). […]
The plate was imaged prior to and after addition of progesterone (i.e., images were taken at regular intervals over a period of 7 hours). Oocyte maturation was phenotypically assessed by the appearance of a white spot at the animal pole of the oocyte. […]

The test system of another data set is MAP kinase (MAPK). Put plainly: Western blot of treated oocytes, MAP kinase phosphorylation. It is filed as cell-based, Xenopus. An excerpt: (§2) To begin to decipher the mechanism of action of the compounds that modified oocyte maturation, their effects on regulators of the meiotic cell cycle were examined. In particular, Musashi (Msi1) phosphorylation, Msi2 phosphorylation, MAP kinase phosphorylation, and Cdc2 (also called CDK1) dephosphorylation were examined in Xenopus oocytes treated with a modifying compound or only DMSO (i.e., control). The oocytes were processed for Western blot analysis using standard procedures, and the blots were probed with antibodies specific for phosphorylated or non-phosphorylated forms of the proteins of interest.

For the next data set, the system named is Cdc2 (also called CDK1). The data set is described as follows: Western blot of treated oocytes, Cdc2 (CDK1) dephosphorylation / MPF activation. The conditions noted are these: for dephosphorylation of cdc2 (CDK1), activation of MPF: activators, no progesterone, PNR-5-46 5 μM, JVM-9 100 μM (FIG. 8A). The format is cell-based, Xenopus.
Text: as §2

Data set [2] relates to Xenopus oocytes. Put plainly: Xenopus oocyte bioassay: oocyte maturation (GVBD) in the absence of progesterone. It is filed as cell-based. The conditions noted are these: for activation of GVBD: no progesterone (FIG. 6).
In another data set the test system is MCF-7 cells. Put plainly: Mammosphere formation (breast cancer stem cell self-renewal), MCF-7. The conditions noted are these: compound first 3 days, scored day 14 (P2), 50, 5 and 0.5 μM. The format is cell-based. An excerpt: (§3) Mammosphere culture growth presents a useful indicator of the presence of breast cancer cells with stem cell-like properties. Breast cancer cell lines grown as mammospheres (under non-adherent plating conditions) recapitulate the three-dimensional organization of tumors. Importantly, assessment of stem cell self-renewal capacity can be achieved through dispersion of mammospheres to single cells and subsequent limited dilution replating. […] At day 7, mammospheres were collected, dispersed to single cells and replated at limiting dilution (P1). Spheroids were scored at day 14 (P2). Mammosphere forming units (MFUs) are defined as spheroid bodies >100 μm (MCF-7 cells) or >65 μm (MDA MB231 cells) diameter after 7 (P1) or 14 (P2) days growth in non-adherent culture.

The next data set deals with U87. The data set is described as follows: Neurosphere formation, glioblastoma cell line U87. The format is cell-based. The conditions noted are these: lowest dose tested 0.5 μM (FIG. 11B). The procedure:
(§4) The activity of the three test compounds to inhibit neurosphere formation was also tested in a neuroblastoma cell line SHSY5Y and a glioblastomoa cell line U87. All three compounds attenuated neurosphere formation in both cell lines, to varying degrees of efficacy (FIGS. 11A,B). […] None of the compounds affected cell viability.

A further data set deals with SHSY5Y. The data set is described as follows: Neurosphere formation, neuroblastoma cell line SHSY5Y. It is filed as cell-based. The conditions noted are these: lowest dose tested 0.5 μM (FIG. 11A). How it is done:
as §4

The test system of a further data set is Musashi1 (Msi1). Put plainly: Western blot of treated oocytes, Msi1 phosphorylation. The format is cell-based, Xenopus.
Text: as §2

The next data set relates to MDA MB231 cells. The data set is described as follows: Mammosphere formation (breast cancer stem cell self-renewal), MDA MB231. The conditions noted are these: compound first 3 days, scored day 14 (P2), 50, 5 and 0.5 μM. It is filed as cell-based.
Text: as §3

Data set [3] concerns Xenopus oocytes. The data set is described as follows: Xenopus oocyte bioassay: progesterone-induced oocyte maturation (GVBD). The format is cell-based. How it is done:
as §1
Oocyte maturation was stimulated by the addition of progesterone. For this, 2 μL of 1000× stock solution (2 mg/mL in ethanol) was added to the appropriate wells to yield a final concentration of 2 μg/mL (although other concentrations of progesterone may be employed). The 96-well plate was imaged from the top-down (see FIG. 4E) using a 36-megapixel Nikon D800 SLR camera with an AF Micro Nikkor 60 mm, f/2.8 lens, mounted on a dedicated copy stand (with adjustable flanking light sources).
The plate was imaged prior to and after addition of progesterone (i.e., images were taken at regular intervals over a period of 7 hours). Oocyte maturation was phenotypically assessed by the appearance of a white spot at the animal pole of the oocyte. The white spot is due to migration of the germinal vesicle towards the animal pole prior to germinal vesicle breakdown (GVBD). The high resolution images were digitally zoomed after capture to analyze the maturation status of oocytes in individual wells of the plate (FIGS. 4A-D).
The Xenopus oocyte bioassay was used to screen a collection of about 2000 low molecular weight small molecules. Oocytes were distributed among multi-well plates essentially as described above in Example 1. The test compounds were dissolved in DMSO to make 100× stock solutions. The test compounds were added to the appropriate wells at a final concentration of 100 μM (and 1% DMSO). No drug control oocytes were exposed to 1% DMSO only. Sixteen hours later, progesterone was added to the appropriate wells, with the first and last wells of each plate containing the no drug control oocytes. The rate of maturation in the first and last wells served as an intra-assay control for time taken for progesterone addition across each multiwell plate. The plates were imaged essentially as described above in Example 1.

The next data set has as its system Musashi2 (Msi2). The data set is described as follows: Western blot of treated oocytes, Msi2 phosphorylation. The conditions noted are these: FIG. 8B. It is filed as cell-based, Xenopus.
Text: as §2

In the next data set the test system is MCF-7 or MDA MB231 cells. Put plainly: General cell viability of breast cancer cells. The format is cell-based. The conditions noted are these: 0.5 μM dose.
Setting [4] is: activators, no progesterone, PNR-5-46 5 μM, JVM-9 100 μM (FIG. 8A).
[5] abbreviates: in response to progesterone (FIG. 9).

`C/C1=C\CC[C@@]2(C)O[C@H]2[C@H]2OC(=O)[C@@H](CNc3nc4ccccc4[nH]3)[C@@H]2CC1` [JVM-9]: the “progesterone-independent oocyte maturation (activator)” value in the data set on Xenopus oocytes [1] is reported as “activation of maturation; also recorded: activators; also recorded: activated spontaneous oocyte maturation”. Besides, the “phosphorylation of MAP kinase” value in the data set with MAP kinase (MAPK) (setting [4]) is “promoted phosphorylation”. Besides, the “dephosphorylation of cdc2 (CDK1), activation of MPF” value in the data set on Cdc2 (also called CDK1) is reported as “dephosphorylation of cdc2”. Moreover, the “activation of GVBD” value with Xenopus oocytes [2] (10 μM) is reported as “less effective”; in the data set on Xenopus oocytes [2] (100 and 50 μM), “activated GVBD”.
As to `C/C1=C\CC[C@@]2(C)O[C@H]2[C@H]2OC(=O)/C(=C\c3ccc(N)cc3)[C@@H]2CC1` [PNR-5-41], the “mammosphere formation relative to DMSO-treated control cells” value with MCF-7 cells and with MDA MB231 cells was “did not” in each case. Moreover, the “neurosphere formation / stem cell self-renewal” value with U87 and with SHSY5Y was “Significant inhibition” in each case. In addition, in the data set on MAP kinase (MAPK) (setting [5]), the “phosphorylation of MAP kinase” value was “did not affect phosphorylation”. In the data set with Musashi1 (Msi1) (setting [5]), the “phosphorylation of Msi1” value is recorded as “did not affect phosphorylation”. Moreover, the “de-phosphorylation and activation of cyclin B/CDK1 (MPF)” value in the data set on Cdc2 (also called CDK1) (setting [5]) is on record as “blocked”. In addition, the EC50 with Xenopus oocytes [3] (Xenopus laevis, Oocyte, progesterone-induced, p<0.05, n=5 vs DMSO only, read-out: EC50 (inhibition of progesterone-induced maturation)) was determined as 5 µM. Also, the “effect on rate of progesterone-induced oocyte maturation (inhibitor)” value with Xenopus oocytes [3] (progesterone-induced) is listed as “attenuation of progesterone-induced GVBD; also recorded: inhibitor; also recorded: inhibited progesterone-induced maturation in a dose-dependent manner”.
On to `C/C1=C\CC[C@@]2(C)O[C@H]2[C@H]2OC(=O)/C(=C\c3cccc(Br)c3)[C@@H]2CC1` [PNR-5-46], for which the “mammosphere formation relative to DMSO-treated control cells” value with MCF-7 cells and with MDA MB231 cells was “effectively inhibited” in each case. The “neurosphere formation / stem cell self-renewal” value in the data set with U87 and in the data set on SHSY5Y was “not” each time. Also, in the data set with Xenopus oocytes [1], the “progesterone-independent oocyte maturation (activator)” value is reported as “hormone-independent activation of maturation; also recorded: activators; also recorded: induced oocyte maturation”. For the same compound, the “phosphorylation of MAP kinase” value in the data set with MAP kinase (MAPK) (setting [4]) is listed as “promoted phosphorylation”. The “activation (phosphorylation) of Msi2” value with Musashi2 (Msi2) is “triggered activation”. Also, the “activation (phosphorylation) of Msi1” value in the data set with Musashi1 (Msi1) (not shown) is on record as “triggered activation”. The “dephosphorylation of cdc2 (CDK1), activation of MPF” value in the data set on Cdc2 (also called CDK1) is on record as “dephosphorylation of cdc2”. In addition, in the data set on Xenopus oocytes [2] (Xenopus laevis, Oocyte, absence of progesterone, read-out: EC50 (activation of oocyte maturation)), the EC50 came to 7 µM. Besides, the “percent of oocytes that initiated GVBD” value in the data set with Xenopus oocytes [2] (by about 4 hours, no progesterone, 100 μM PNR-5-46 (FIG. 5)) is on record as “About 35%”. Besides, the general cell viability entry in the data set on MCF-7 or MDA MB231 cells is reported as “no significant effect”.
As for `CC(=O)[C@H]1CC[C@H]2[C@@H]3CCC4=CC(=O)CC[C@]4(C)[C@H]3CC[C@]12C` [progesterone, reference compound], in the data set with Xenopus oocytes [3] (by about 7 hours, progesterone-treated oocytes (FIG. 5)), the “percent of oocytes that started GVBD” value is “About 35%”.
As to `C/C1=C\CC[C@@]2(C)O[C@H]2[C@H]2OC(=O)[C@@H](CNCCCn3ccnc3)[C@@H]2CC1` [JVM-20], the “mammosphere formation relative to DMSO-treated control cells” value in the data set on MCF-7 cells and with MDA MB231 cells was “effectively inhibited” each time. The “neurosphere formation / stem cell self-renewal” value in the data set with U87 and in the data set on SHSY5Y was “particularly effective” throughout. The “effect on progesterone-stimulated maturation” value with Xenopus oocytes [3] (from 1 to 50 μM) is on record as “accelerate”; with Xenopus oocytes [3] (high dose (100 μM)), “inhibit”. Moreover, the general cell viability result with MCF-7 or MDA MB231 cells is reported as “no significant effect”.
